Results as given in ChEMBL document CHEMBL1201861, “Genomics of Drug Sensitity in Cancer screening data, Wellcome Trust Sanger Institute”.

Tests used:
Assay in all cases: cells
Ca9-22 = type: functional, cell-based; conditions: Homo sapiens;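 note: growth inhibition of Ca9-22 cells, read out with a cell viability assay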
Description: SANGER: Inhibition of human Ca9-22 cell growth in a cell viability assay.

ABC-1 = type: functional, cell-based; conditions: Homo sapiens;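 note: growth inhibition of human ABC-1 cells, read out by a cell viability assay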
Description: SANGER: Inhibition of human ABC-1 cell growth in a cell viability assay.

NCI-H727 = type: functional, cell-based; conditions: Homo sapiens;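 note: growth inhibition of human NCI-H727 cells, read out with a cell viability assay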
Description: SANGER: Inhibition of human NCI-H727 cell growth in a cell viability assay.

EC-GI-10 = type: functional, cell-based, Homo sapiens; conditions: Homo sapiens, EC-GI-10
Description: SANGER: Inhibition of human EC-GI-10 cell growth in a cell viability assay.

UMUC3 = type: functional, cell-based; conditions: Homo sapiens;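 note: growth inhibition of human UM-UC-3 cells, read out with a cell viability assay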
Description: SANGER: Inhibition of human UM-UC-3 cell growth in a cell viability assay.

NCI-H1703 = type: functional, cell-based; conditions: Homo sapiens;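 note: growth inhibition of NCI-H1703 cells, read out via a cell viability assay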
Description: SANGER: Inhibition of human NCI-H1703 cell growth in a cell viability assay.

MDA-MB-415 = type: functional, cell-based; conditions: Homo sapiens
SW948 = type: functional, cell-based; conditions: Homo sapiens;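 note: growth inhibition of SW948 cells, read out with a cell viability assay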
Description: SANGER: Inhibition of human SW948 cell growth in a cell viability assay.

HSC-3 = type: functional, cell-based; conditions: Homo sapiens
Description: SANGER: Inhibition of human HSC-3 cell growth in a cell viability assay.

COLO-678 = type: functional, cell-based; conditions: Homo sapiens
Description: SANGER: Inhibition of human COLO-678 cell growth in a cell viability assay.

CP66-MEL = type: functional, cell-based; conditions: Homo sapiens;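 note: growth inhibition of CP66-MEL cells determined in a cell viability assay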
Description: SANGER: Inhibition of human CP66-MEL cell growth in a cell viability assay.

HCC38 = type: functional, cell-based; conditions: Homo sapiens;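 note: cell viability assay on the human HCC38 cell line, with IC50 marking the concentration that inhibits cell growth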
Description: SANGER: Inhibition of human HCC38 cell growth in a cell viability assay.

SF-295 = type: functional, cell-based; conditions: Homo sapiens;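 note: growth inhibition of SF-295 cells, read out with a cell viability assay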
Description: SANGER: Inhibition of human SF295 cell growth in a cell viability assay.

TCC-SUP = type: functional, cell-based; conditions: Homo sapiens;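 note: growth inhibition of TCC-SUP cells, read out with a cell viability assay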
Description: SANGER: Inhibition of human TCCSUP cell growth in a cell viability assay.

CAL-54 = type: functional, cell-based; conditions: Homo sapiens;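 note: growth inhibition of CAL-54 cells, read out by a viability measurement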
Description: SANGER: Inhibition of human CAL-54 cell growth in a cell viability assay.

CHL-1 = type: functional, cell-based; conditions: Homo sapiens;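 note: cell growth inhibition, read out with a cell viability assay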
Description: SANGER: Inhibition of human CHL-1 cell growth in a cell viability assay.

SK-MEL-28 = type: functional, cell-based; conditions: Homo sapiens;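 note: growth inhibition of human SK-MEL-28 cells, read out with a cell viability assay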
Description: SANGER: Inhibition of human SK-MEL-28 cell growth in a cell viability assay.

SW1088 = type: functional, cell-based; conditions: Homo sapiens;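 note: growth inhibition of human SW1088 cells, read out by a cell viability assay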
Description: SANGER: Inhibition of human SW1088 cell growth in a cell viability assay.

UACC-62 = type: functional, cell-based; conditions: Homo sapiens;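 note: growth inhibition of human UACC-62 cells, read out by a cell viability assay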
Description: SANGER: Inhibition of human UACC-62 cell growth in a cell viability assay.

SiHa = type: functional, cell-based; conditions: Homo sapiens;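 note: Viability-based readout of growth inhibition in SiHa cells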
Description: SANGER: Inhibition of human SiHa cell growth in a cell viability assay.

AN3-CA = type: functional, cell-based; conditions: Homo sapiens;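 note: growth inhibition of human AN3-CA cells measured by a cell viability assay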
Description: SANGER: Inhibition of human AN3-CA cell growth in a cell viability assay.

SK-MEL-30 = type: functional, cell-based; conditions: Homo sapiens;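 note: growth inhibition of SK-MEL-30 cells, determined with a cell viability assay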
Description: SANGER: Inhibition of human SK-MEL-30 cell growth in a cell viability assay.

HCC1937 = type: functional, cell-based; conditions: Homo sapiens;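 note: growth inhibition measured with a cell viability read-out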
Description: SANGER: Inhibition of human HCC1937 cell growth in a cell viability assay.

SK-MEL-24 = type: functional, cell-based; conditions: Homo sapiens;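 note: growth inhibition read out by a cell viability assay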
Description: SANGER: Inhibition of human SK-MEL-24 cell growth in a cell viability assay.

AGS = type: functional, cell-based; conditions: Homo sapiens;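 note: growth inhibition of AGS cells, determined with a cell viability assay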
Description: SANGER: Inhibition of human AGS cell growth in a cell viability assay.

SNU-423 = type: functional, cell-based; conditions: Homo sapiens
Description: SANGER: Inhibition of human SNU-423 cell growth in a cell viability assay.

C3A = type: functional, cell-based; conditions: Homo sapiens;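 note: growth inhibition of C3A human cells, quantified with a cell viability readout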
Description: SANGER: Inhibition of human C3A cell growth in a cell viability assay.

H4 = type: functional, cell-based; conditions: Homo sapiens
Description: SANGER: Inhibition of human H4 cell growth in a cell viability assay.

NCI-H1573 = type: functional, cell-based; conditions: Homo sapiens;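 note: growth inhibition of NCI-H1573 cells, read out with a cell viability assay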
Description: SANGER: Inhibition of human NCI-H1573 cell growth in a cell viability assay.

NY = type: functional, cell-based; conditions: Homo sapiens
Description: SANGER: Inhibition of human NY cell growth in a cell viability assay.

GAMG = type: functional, cell-based; conditions: Homo sapiens;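 note: cell growth inhibition measured by a viability assay in the GAMG human cell line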
Description: SANGER: Inhibition of human GAMG cell growth in a cell viability assay.

CAL-72 = type: functional, cell-based; conditions: Homo sapiens;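 note: cell viability assay measuring inhibition of proliferation in the CAL-72 cell line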
Description: SANGER: Inhibition of human CAL-72 cell growth in a cell viability assay.

HuO9 = type: functional, cell-based; conditions: Homo sapiens;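 note: growth inhibition of HuO9 cells, read out with a cell viability assay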
Description: SANGER: Inhibition of human HuO9 cell growth in a cell viability assay.

WM-115 = type: functional, cell-based; conditions: Homo sapiens
Description: SANGER: Inhibition of human WM-115 cell growth in a cell viability assay.

HGC-27 = type: functional, cell-based; conditions: Homo sapiens;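 note: growth inhibition of human HGC-27 cells, read out in a cell viability assay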
Description: SANGER: Inhibition of human HGC-27 cell growth in a cell viability assay.

NCI-H1623 = type: functional, cell-based; conditions: Homo sapiens;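 note: cell viability assay used as the read-out for growth inhibition of NCI-H1623 cells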
Description: SANGER: Inhibition of human NCI-H1623 cell growth in a cell viability assay.

DU-145 = type: functional, cell-based; conditions: Homo sapiens
Description: SANGER: Inhibition of human DU-145 cell growth in a cell viability assay.

OE19 = type: functional, cell-based; conditions: Homo sapiens;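 note: growth inhibition of OE19 cells, measured through a cell viability read-out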
Description: SANGER: Inhibition of human OE19 cell growth in a cell viability assay.

NB12 = type: functional, cell-based; conditions: Homo sapiens;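 note: growth inhibition of human NB12 cells, read out by a cell viability assay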
Description: SANGER: Inhibition of human NB12 cell growth in a cell viability assay.

HOS = type: functional, cell-based; conditions: Homo sapiens;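 note: growth inhibition of human HOS cells, read out with a cell viability assay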
Description: SANGER: Inhibition of human HOS cell growth in a cell viability assay.

CAMA-1 = type: functional, cell-based; conditions: Homo sapiens;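 note: growth inhibition of CAMA-1 cells, read out with a cell viability assay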
Description: SANGER: Inhibition of human CAMA-1 cell growth in a cell viability assay.

BHY = type: functional, cell-based; conditions: Homo sapiens;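 note: cell growth inhibition read out by a viability assay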
Description: SANGER: Inhibition of human BHY cell growth in a cell viability assay.

HOP-92 = type: functional, cell-based; conditions: Homo sapiens;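 note: cell viability readout, with IC50 reflecting inhibition of HOP-92 cell growth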
Description: SANGER: Inhibition of human HOP-92 cell growth in a cell viability assay.

G-361 = type: functional, cell-based; conditions: Homo sapiens
SJRH30 = type: functional, cell-based; conditions: Homo sapiens;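 note: growth inhibition of human SJRH30 cells, read out with a cell viability assay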
Description: SANGER: Inhibition of human SJRH30 cell growth in a cell viability assay.

SK-N-AS = type: functional, cell-based; conditions: Homo sapiens;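 note: growth inhibition of human SK-N-AS cells, measured with a cell viability assay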
Description: SANGER: Inhibition of human SK-N-AS cell growth in a cell viability assay.

HTC-C3 = type: functional, cell-based; conditions: Homo sapiens;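 note: inhibition of cell growth, read out with a cell viability assay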
Description: SANGER: Inhibition of human HTC-C3 cell growth in a cell viability assay.

NCI-H2122 = type: functional, cell-based; conditions: Homo sapiens;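 note: growth inhibition of the cells, read out with a cell viability assay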
Description: SANGER: Inhibition of human NCI-H2122 cell growth in a cell viability assay.

Measured: IC50

CC1=C(/C=C/C(C)=C/C=C/C(C)=C/C(=O)O)C(C)(C)CCC1 [TRETINOIN]
> 10 µM: all assays above
